Assay results from article PMC8603191, “Fragment-based design of selective GPCR ligands guided by free energy simulations” (Chemical communications (Cambridge, England), 2021).
Where “and” joins values, the source holds several entries; their conditions need not be identical. Equal entries are not always repeated.

What was measured:
human A1AR [1] = assay: Radioligand binding assay, displacement of [3H]DPCPX; conditions: A1AR versus A2AAR; for A1AR selectivity index: from Ki values; for selectivity for the A1AR: Fig. 1
Protocol: (§1) Radioligand binding assays. HEK293 cells expressing the human A1- or A2AARs were cultured in DMEM supplemented with 10% fetal bovine serum, 100 Units/ml penicillin, 100 µg/ml streptomycin, and 2 µmol/ml glutamine. Cells were detached from plates by scraping into cold PBS and centrifuged at 250 g for 5 min. The pellets were resuspended in ice-cold Tris HCl buffer (50 mM, pH 7.4) and then homogenized. After homogenization and suspension, cells were centrifuged at 1000 g for 10 min, and the pellet was discarded.
(§2) The suspension was then re-centrifuged at 20,000 g for 60 min at 4 °C. The pellets were resuspended in buffer containing 3 Units/ml adenosine deaminase and incubated at 37°C for 30 min. The aliquots of membrane preparations were stored at −80°C until the binding experiments. For displacement binding assays, membrane preparations (20 µg proteins/tube) were incubated at 25°C for 60 min with a final concentration of [3H]DPCPX (0.5 nM) and [3H]ZM241385 (1.0 nM) for A1- and A2AARs, respectively, in a mixture containing 50 µL of increasing concentrations of a test ligand in a total assay volume of 200 µL of 50 mM Tris HCl, pH 7.4, containing 10 mM MgCl2. Nonspecific binding was determined using 100 µM of XAC. The reaction was terminated by filtration with GF/B filters using a Brandel 24-channel harvester. Filters were placed in scintillation vials containing 5 ml of Hydrofluor scintillation buffer and counted using a PerkinElmer Tricarb 2810TR liquid scintillation counter. […]
(§3) Table S1. Binding affinities of compounds 1-10 based on displacement of [3H]DPCPX and [3H]ZM241385 at the A1AR and A2AAR, respectively.
(§4) Compound Substituent A1AR A2AAR index […]
(§5) a Ki values are expressed as means ± SEM from (2-4) independent experiments. b Free energy of binding (ΔG) calculated from experimental binding affinities (kcal/mol) / Number of heavy atoms (HA). The ligand efficiency (LE) = −ΔG/HA. c Values from Matricon et al.8
(§6) Table S3. Binding affinities of compounds 11-26 based on displacement of [3H]DPCPX and […]
(§7) a K values are expressed as means ± SEM from (2-4) independent experiments.
(§8) Free energy of binding (ΔG) calculated from experimental binding affinities (kcal/mol) / Number of heavy

human A1AR [2] = biological target: T1, human A1AR (Homo sapiens, UniProt P30542); assay: as above; conditions: for ligand efficiency (LE, binding free energy per heavy atom): A1AR; for Free energy of binding (ΔG) A1AR: calculated from experimental binding affinities
T1 construct: expressed in transfected cells; host or cells: HEK293 (membrane preparations)
T1 sequence (P30542 1-326): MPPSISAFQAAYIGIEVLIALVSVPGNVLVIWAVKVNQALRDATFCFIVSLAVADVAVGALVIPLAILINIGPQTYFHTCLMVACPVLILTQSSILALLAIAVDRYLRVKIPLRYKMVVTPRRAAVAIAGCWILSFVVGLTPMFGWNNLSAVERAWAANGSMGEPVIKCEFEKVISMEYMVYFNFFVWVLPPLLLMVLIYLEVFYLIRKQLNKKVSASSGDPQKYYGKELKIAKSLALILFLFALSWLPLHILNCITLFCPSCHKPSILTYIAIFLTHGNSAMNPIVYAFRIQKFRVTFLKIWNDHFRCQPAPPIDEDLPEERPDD
Protocol: as §1, §2, §3, §4, §5, §6, §7, §8

human A2AAR = biological target: T2, human A2AAR (Homo sapiens, UniProt P29274); assay: Radioligand binding assay, displacement of [3H]ZM241385; conditions: for Free energy of binding (ΔG) A2AAR: calculated from experimental binding affinities; for Ki: displacement of [3H]ZM241385, means ± SEM from 2-4 independent experiments; for ΔΔG Experimental A2AAR: reference compound 5, based on Table S3
T2 construct: expressed in transfected cells; host or cells: HEK293 (membrane preparations)
Protocol: as §1, §2, §3, §4, §5, §6, §7, §8

[3] = compound 1 as reference, based on Table S1
[4] = displacement of [3H]DPCPX, means ± SEM from 2-4 independent experiments
[5] = radioligand binding, Fig. 1, Table S5
[6] = reference compound 5, based on Table S3

T2 sequence (P29274 whole entry): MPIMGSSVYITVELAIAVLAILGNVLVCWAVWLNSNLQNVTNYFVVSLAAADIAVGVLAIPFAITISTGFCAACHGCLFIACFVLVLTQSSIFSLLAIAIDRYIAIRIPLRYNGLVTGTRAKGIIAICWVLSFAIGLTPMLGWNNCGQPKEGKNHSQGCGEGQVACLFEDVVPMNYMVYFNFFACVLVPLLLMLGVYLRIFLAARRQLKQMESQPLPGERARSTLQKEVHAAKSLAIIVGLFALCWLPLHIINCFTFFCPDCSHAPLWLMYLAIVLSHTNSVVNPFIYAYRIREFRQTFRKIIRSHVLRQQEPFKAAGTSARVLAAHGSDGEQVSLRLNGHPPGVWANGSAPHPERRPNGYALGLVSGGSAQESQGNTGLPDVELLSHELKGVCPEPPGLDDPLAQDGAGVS

Row | Compound | A1AR selectivity index (human A1AR [1]) | selectivity for the A1AR (human A1AR [1]) | ligand efficiency (LE, binding free energy per heavy atom) (human A1AR [2]) [kcal mol^−1 HA^−1] | Free energy of binding (ΔG) A1AR (human A1AR [2]) [kcal/mol] | Free energy of binding (ΔG) A2AAR (human A2AAR) [kcal/mol] | ΔΔG Experimental A1AR (human A1AR [2]; [3]) | Ki (human A1AR [2]; [4]) | Ki (human A2AAR) [nM] | improvement of A1AR affinity (human A1AR [2]; compared to compound 1) [fold] | Ki (human A1AR [2]; [5]) [nM] | A2AAR selectivity (human A2AAR; A2AAR versus A1AR) [fold] | ΔΔG Experimental A1AR (human A1AR [2]; [6]) | ΔΔG Experimental A2AAR (human A2AAR)
1 | CC(=O)Nc1nc2ccccc2s1 [Compound 1] | 7.1 | 7 fold | 0.52 | -6.8 | -5.6 | – | – | – | – | – | – | – | –
2 | CCC(=O)Nc1nc2ccccc2s1 [Compound 2] | 1.8 | – | – | -7.5 | -7.1 | –0.7 ± 0.3 kcal/mol | 3460 nM and 3500 nM | 6190 ± 3430 | – | – | – | – | –
3 | CC(C)C(=O)Nc1nc2ccccc2s1 [Compound 3] | 1.6 | – | – | -8.0 | -7.7 | –1.2 ± 0.3 kcal/mol | 1420 nM and 1400 nM | 2260 ± 360 | – | – | – | – | –
4 | O=C(Nc1nc2ccccc2s1)C1CC1 [Compound 4] | 1.4 | – | – | -7.7 | -7.5 | –0.9 ± 0.2 kcal/mol | 2350 nM and 2400 nM | 3270 ± 1140 | – | – | – | – | –
5 | CC(C)(C)C(=O)Nc1nc2ccccc2s1 [Compound 5] | 5.0 | not more selective for the A1AR compared to 1 | 0.56 | -9.0 | -8.0 | –2.2 ± 0.2 kcal/mol | – | 1430 ± 230 | 39 | 285 | – | – | –
6 | CCC(CC)C(=O)Nc1nc2ccccc2s1 [Compound 6] | 2.8 | – | – | -8.2 | -7.6 | –1.4 ± 0.1 kcal/mol | 1040 nM and 1000 nM | 2920 ± 720 | – | – | – | – | –
7 | O=C(Nc1nc2ccccc2s1)C1CCCCC1 [Compound 7] | 3.2 | – | – | -8.2 | -7.5 | –1.4 ± 0.2 kcal/mol | 1080 nM and 1100 nM | 3410 ± 950 | – | – | – | – | –
8 | O=C(Nc1nc2ccccc2s1)C12CC3CC(CC1C3)C2 [Compound 8] | 4.0 | – | – | -8.7 | -7.8 | –1.9 ± 0.3 kcal/mol | 484 ± 173 nM | 1940 ± 220 | – | – | – | – | –
9 | O=C(Nc1nc2ccccc2s1)C1CCCC1 [Compound 9] | 2.6 | – | 0.50 | -8.5 | -7.9 | –1.7 ± 0.2 kcal/mol | – | 1610 ± 110 | – | 619 | – | – | –
10 | O=C(Nc1nc2ccccc2s1)c1ccccc1 [Compound 10] | 0.6 | – | – | -8.5 | -8.8 | –1.7 ± 0.1 kcal/mol | 670 ± 80 nM | 386 ± 43 | – | – | 2 | – | –
11 | Cc1ccc2nc(NC(=O)C(C)(C)C)sc2c1 [Compound 11] | < 0.3 | – | – | > -5.5 | -6.3 | – | > 100000 nM | 25800 ± 13200 | – | – | – | > 3.5 kcal/mol | 1.7 ± 0.6 kcal/mol
12 | Cc1cccc2sc(NC(=O)C(C)(C)C)nc12 [Compound 12] | 6.5 | – | – | -8.2 | -7.1 | – | 1040 nM and 1000 nM | 6750 ± 920 | – | – | – | 0.8 ± 0.1 kcal/mol | 0.9 ± 0.1 kcal/mol
13 | Cc1ccc2sc(NC(=O)C(C)(C)C)nc2c1 [Compound 13] | 19.1 | – | – | -9.8 | -8.0 | – | 76 ± 17 nM | 1450 ± 600 | – | – | – | –0.8 ± 0.2 kcal/mol | 0.0 ± 0.5 kcal/mol
14 | CC(C)(C)C(=O)Nc1nc2cc(Cl)ccc2s1 [Compound 14] | 11.0 | – | – | -9.5 | -8.1 | – | 117 ± 11 nM | 1290 ± 280 | – | – | – | –0.5 ± 0.1 kcal/mol | –0.1 ± 0.2 kcal/mol
15 | CC(C)(C)C(=O)Nc1nc2cc(Br)ccc2s1 [Compound 15] | 18.7 | 19 fold | 0.60 | -10.2 | -8.4 | – | – | 746 ± 149 | – | 40 | – | –1.2 ± 0.2 kcal/mol | –0.4 ± 0.2 kcal/mol
16 | CCc1ccc2sc(NC(=O)C(C)(C)C)nc2c1 [Compound 16] | 23.6 | – | – | -9.4 | -7.5 | – | 143 ± 20 nM | 3380 ± 530 | – | – | – | –0.4 ± 0.1 kcal/mol | 0.5 ± 0.4 kcal/mol
17 | CC(C)(C)C(=O)Nc1nc2cc(C#N)ccc2s1 [Compound 17] | 25.2 | – | – | -9.1 | -7.2 | – | 223 ± 22 nM | 5630 ± 740 | – | – | – | –0.2 ± 0.1 kcal/mol | 0.8 ± 0.1 kcal/mol
18 | COc1ccc2sc(NC(=O)C(C)(C)C)nc2c1 [Compound 18] | 10.5 | – | – | -9.4 | -8.0 | – | 152 ± 57 nM | 1600 ± 510 | – | – | – | –0.4 ± 0.3 kcal/mol | 0.1 ± 0.5 kcal/mol
